Assay [1] deals with T1, Bcl-xL (Homo sapiens, UniProt Q07817).
T1 construct: made in house
The assay is described as follows: Alpha Screen Bcl-xL binding assay, competition with Bim26-mer. As to conditions: values listed in the order of Table 1; read-out: Alphascreen results (IC50). As for the experimental part:
The measurement of competition of compounds of the invention with Bim26-mer for a Bcl-2 family protein binding site using an Alpha Screen Bcl-xL Binding Assay:
The BH3 proteins ALPHASCREEN™ assay was used to identify active small molecules Bcl-2 family protein screen. e.g., Bcl-xL, hmMcl-1 screen. To determine an accurate estimation of the IC50, the compounds were routinely tested at starting concentrations, 100 μM and/or 1 μM and serially titrated 3 fold over 11 dilutions.
The beads come in close proximity when the protein and the peptides interact. Donor beads contain a photosensitiser that converts oxygen to an excited form of O2 at an excitation of 680 nm. Energy is transformed from the singlet oxygen and reacts with chemiluminescers on the acceptor bead, resulting in light emission at 520-620 nm. […] With this information, the IC50 of each compound was calculated
GST-Bcl-xL, GST-hmMcl-1 and biotinylated GST proteins were prepared in-house and were stored as stock solutions at −80° C. The biotinylated-Bak, and biotinylated-Bim peptides were purchased from Auspep and were stored as 500 μM stock solutions in 100% DMSO at −80° C. The ALPHASCREEN™ GST (Glutathione-S-Transferase) Detection Kit was obtained from Perkin Elmer Lifesciences (Cat #6760603R). The Proxiplates, white 384 well flat-Bottom plates were purchased from Interpath Services, Melbourne (Cat #784075). The seals to cover the plates were purchased from Proscience. Melbourne (Cat#784075). DMSO was purchased from AnalaR. The 384 deep well plates and the Polypropylene 50 μL, V bottom polypropylene compound plates were purchased from Matrical.
Compounds of the invention were prepared as 10 mM stocks with 100% DMSO on the day prior to performing the assay. […] To achieve a final compound concentration of 1 μM, in a separate matrical plate, 28 μL of 100% DMSO and 2 μL of 10 mM compound was added to a well, mixed well. 2 μL of this solution was taken and added to 38 μL of 100% DMSO. 20 μL of this solution was added to the test matrical plate. Several control compounds were included in the test plates. For the control wells 15 μL 100% DMSO only was added to the appropriate wells of each plate. The compound plates were then serially diluted 2 fold using the MiniTrak. Once titrations were complete, the compound plate was immediately covered with a foil seal to prevent evaporation.
The assay and bead buffers were prepared fresh. Each titrated compound plate was assayed in duplicate. The following volumes were sufficient to run 12 Proxiplates (4 assay plates run in duplicate in each of Bclxl, hmMcl and counter assays)
Protein and Peptide Preparation; and Assay Performance • 1. The assay and bead buffers were used to prepare the acceptor and donor solutions. ALPHASCREEN™ beads are light sensitive and therefore prepared in a darkened room. 2.5 μL of beads were added per 1 mL of buffer. • 2. The volume of protein or peptide to add was calculated using the following formula:
[formula] • C1=Final Concentration of protein/peptide • C2=Stock Concentration of protein/peptide • V1=Total Volume of Acceptor/Donor Solution • V2=Volume of stock protein/Peptide to add to Acceptor/Donor solution • 3. The assay components were prepared as separate Acceptor and Donor Solutions. The Acceptor Solution contained Acceptor heads and target protein, while the Donor Solution contained Donor beads and biotinylated peptide.
• 4. After the solutions were prepared, they were left to incubate for 30 minutes at room temperature to allow the beads to bind to the protein and the peptide. • 5. 50 μL of Bcl-xL solution, 50 μL of hmMcl-1 solution and 50 µL of biotinylated-GST were added into separate deep wells on an assay plate. A control […]. Assay/Bead buffer was added separate well plates (no protein). • 6.

The next assay addresses T2, Bcl-2 (Homo sapiens, UniProt P10415).
T2 construct: made in house
The assay can be described thus: TR-FRET binding assay, competition with F-Bak for Bcl-2 binding site. As to conditions: GST-Bcl-2, F-Bak probe. The protocol:
(§1) Test compounds were serially diluted in DMSO starting at 50 μM (2× starting concentration; 10% DMSO) and 10 μL transferred into a 384-well plate.
(§2) The samples are then mixed on a shaker for 1 minute then incubated for an additional 2 hours at room temperature. For each assay plate, a probe/antibody and protein/antibody/probe mixture were included as a negative and a positive control, respectively. Fluorescence was measured on the Envision (Perkin Elmer) using a 340/35 nm excitation filter and 520/525 (F-Bak) and 495/510 nm (Tb-labeled anti-his antibody) emission filters. Dissociation constants (Ki) were determined using Wang's equation (see, Wang, Z. X. An exact mathematical expression for describing competitive binding of two different ligands to a protein molecule. FEBS Lett. 1995 360:111-114). The TR-FRET assay can be performed in the presence of varying concentrations of human serum (HS) or fetal bovine serum (FBS).
For comparison, the measurement of the competition of compounds of the invention for other Bcl-2 family protein binding sites (e.g., Bcl-2, Mcl-1) using the TR-FRET binding assay was accomplish by substituting GST-Bcl-xL in the TR-FRET assay with other GST-labeled protein, e.g. GST-Bcl-2, GST-Mcl-1 prepared in-house.
For comparison, data (Ki in micromolar) from the measurement of the competition by certain compounds of the invention (i.e., compounds 1, 28, 38, 63, 71, 75, 80, 81, 92 and 94 in Table 1) with F-Bak for the Bcl-2 binding site using the TR-FRET binding assay are, 1.2, 0.15, 0.01, 0.018, 0.50, 0.272, 0.167, 0.66, 0.23 and 0.000003 respectively.
Background: In TR-FRET formats the signal depends on donor and acceptor labels being close together.

Assay [2] deals with T1, Bcl-xL. The assay is described as follows: TR-FRET binding assay, competition with F-Bak for Bcl-xL binding site. As to conditions: GST-Bcl-xL, F-Bak probe. As for the experimental part:
The measurement of competition of compounds of the invention with F-Bak for a Bcl-2 family protein (Bcl-xL) binding site using a Time Resolved Fluorescence Resonance Energy Transfer (TR-FRET) Binding Assay:
as §1, §2

SMILES strings stand for the structures.

T2 sequence (P10415 whole entry, species assumed): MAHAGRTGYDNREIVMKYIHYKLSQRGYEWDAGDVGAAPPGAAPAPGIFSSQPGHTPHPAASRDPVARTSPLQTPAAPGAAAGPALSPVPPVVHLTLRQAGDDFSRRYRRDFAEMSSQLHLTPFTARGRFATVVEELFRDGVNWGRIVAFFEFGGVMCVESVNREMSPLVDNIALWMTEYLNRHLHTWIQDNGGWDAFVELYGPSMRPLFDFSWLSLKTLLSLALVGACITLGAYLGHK
T1 sequence (Q07817 whole entry, species assumed): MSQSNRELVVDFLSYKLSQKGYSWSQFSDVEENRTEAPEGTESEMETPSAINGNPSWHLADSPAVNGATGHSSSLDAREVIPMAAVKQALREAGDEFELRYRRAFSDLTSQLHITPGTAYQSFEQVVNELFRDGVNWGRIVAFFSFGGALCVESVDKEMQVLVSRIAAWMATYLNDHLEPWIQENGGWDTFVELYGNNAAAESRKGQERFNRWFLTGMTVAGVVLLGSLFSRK

For orientation: IC50 means the midpoint of a concentration-inhibition curve. By Ki is commonly meant a dissociation constant, usually derived from enzyme kinetics or from competition with a known ligand. With `O=C(O)c1csc(-c2ccc3c(c2)N(C(=O)Nc2nc4ccccc4s2)CCC3)n1` [Example 1], the IC50 on Bcl-xL [1] turned out to be 360 nM. Further, the inhibition constant Ki stood at 1200 nM on Bcl-2 and 197 nM on Bcl-xL [2].
As for `O=C(O)c1nc(-c2ccc3c(c2)N(C(=O)Nc2nc4ccccc4s2)CCC3)sc1Oc1ccccc1` [Example 63, 2-(1-(benzo[d]thiazol-2-ylcarbamoyl)-1,2,3,4-tetrahydroquinolin-7-yl)-5-phenoxythiazole-4-carboxylic acid], the IC50 on Bcl-xL [1] worked out at 50 nM. Also, the values for the Ki on Bcl-2 and on Bcl-xL [2] were 18 nM and 12 nM, respectively.
Regarding `O=C(O)c1ccc(-c2sc(-c3ccc4c(c3)N(C(=O)Nc3nc5ccccc5s3)CCO4)nc2C(=O)O)cc1` [Example 68, 2-(4-(benzo[d]thiazol-2-ylcarbamoyl)-3,4-dihydro-2H-benzo[b][1,4]oxazin-6-yl)-5-(4-carboxyphenyl)thiazole-4-carboxylic acid], the concentration for half-maximal inhibition (IC50) on Bcl-xL [1] was 540 nM. Further, the affinity at Bcl-xL [2], expressed as Ki, was 470 nM.
For the compound `COc1ccc(-c2sc(-c3ccc4c(c3)N(C(=O)Nc3nc5ccccc5s3)CCC4)nc2C(=O)O)cc1` [Example 71, 2-(1-(benzo[d]thiazol-2-ylcarbamoyl)-1,2,3,4-tetrahydroquinolin-7-yl)-5-(4-methoxyphenyl)thiazole-4-carboxylic acid], the IC50 on Bcl-xL [1] is 40 nM. Also, the Ki came out at 500 nM at Bcl-2 and 7 nM at Bcl-xL [2].
The corresponding values for `CCOc1ccc(-c2sc(-c3ccc4c(c3)N(C(=O)Nc3nc5ccccc5s3)CCC4)nc2C(=O)O)cc1` [Example 75, 2-(1-(benzo[d]thiazol-2-ylcarbamoyl)-1,2,3,4-tetrahydroquinolin-7-yl)-5-(4-ethoxyphenyl)thiazole-4-carboxylic acid] are 7 nM, 272 nM and 1 nM.
The corresponding values for `CC(C)Oc1ccc(-c2sc(-c3ccc4c(c3)N(C(=O)Nc3nc5ccccc5s3)CCC4)nc2C(=O)O)cc1F` [Example 80, 2-(1-(benzo[d]thiazol-2-ylcarbamoyl)-1,2,3,4-tetrahydroquinolin-7-yl)-5-(3-fluoro-4-isopropoxyphenyl)thiazole-4-carboxylic acid] are 6 nM, 167 nM and 0.7 nM.
`COc1ccc(-c2sc(-c3ccc4c(c3)N(C(=O)Nc3nc5ccccc5s3)CCC4)nc2C(=O)N(C)C)cc1` [Example 81, 2-(1-(benzo[d]thiazol-2-ylcarbamoyl)-1,2,3,4-tetrahydroquinolin-7-yl)-5-(4-methoxyphenyl)-N,N-dimethylthiazole-4-carboxamide]: the IC50 on Bcl-xL [1] came to 380 nM. In addition, the inhibition constant (Ki) on Bcl-2 and at Bcl-xL [2] was 660 nM each time.
`O=C(O)c1nc(-c2ccc3c(c2)N(C(=O)Nc2nc4ccccc4s2)CCC3)sc1CCCOc1ccc(-n2ncc3cncnc32)cc1` [Example 94, 5-(3-(4-(1H-pyrazolo[3,4-d]pyrimidin-1-yl)phenoxy)propyl)-2-(1-(benzo[d]thiazol-2-ylcarbamoyl)-1,2,3,4-tetrahydroquinolin-7-yl)thiazole-4-carboxylic acid]: the half-inhibitory concentration (IC50) on Bcl-xL [1] stood at 0.5 nM. Also, the inhibition constant Ki at Bcl-2 and at Bcl-xL [2] was 0.003 nM in each case.

These data come from patent US9067928B2 (Genentech, Inc., priority 2008, dated 2015).
